We go through 11 compounds from ChEMBL document CHEMBL1201862, “PubChem BioAssay data set” (2004).

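Method: 48-hour compound exposure of cells in 96-well plates, five concentrations, linear interpolation of endpoints. Here, GI50 denotes the concentration required for 50% inhibition of growth.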 Calls of active or inactive are those of the source. Cut-off read from the data, not from the text of the source: active = GI50 up to about 1.1 µM and inactive = higher. A value given as a limit tells only on which side of the number the result lay.

Some test systems named below: UACC-62; OVCAR-4; SN12C; T47D; HT-29; SK-MEL-5; KM12; IGROV-1; SNB-78; RPMI-8226; NCI/ADR-RES; MCF7; MDA-MB-435; MOLT-4; COLO 205; SK-OV-3; NCI-H226; SF-295; BT-549; HOP-62.
What all share (assay): growth of human tumour cells (NCI), 48 h

In the case of `COc1ccc(S(=O)(=O)N/N=C/C(=O)O)cc1`, the GI50 is 327 µM (inactive) in the test with UACC-62; 524 µM (inactive) in the test with OVCAR-4; 475 µM (inactive) in the test on SN12C; 695 µM (inactive) in the test with T47D; 336 µM (inactive) with HT-29; 400 µM (inactive) in the test on SK-MEL-5. The GI50 with KM12 is 557 µM (inactive); in the test with IGROV-1, 427 µM (inactive); with SNB-78 it was 830 µM (inactive); with RPMI-8226, 269 µM (inactive); with NCI/ADR-RES, 490 µM (inactive); in the test with MCF7, 409 µM (inactive). The GI50 in the test with MDA-MB-435 was 407 µM (inactive); with MOLT-4, 193 µM (inactive); in the test with COLO 205, 1010 µM (inactive); in the test on SK-OV-3, 971 µM (inactive); with NCI-H226, 624 µM (inactive); in the test with SF-295 it was 465 µM (inactive). For the same compound, the figures for the GI50 in the test on BT-549 and in the test with HOP-62 were 284 µM (inactive) and 678 µM (inactive), respectively.
On to `N#CC(NNC(=O)c1ccccc1O)c1ccccc1O` (stereo not given), for which the GI50 is 2.72 µM (inactive) in the test with UACC-62; 9.64 µM (inactive) in the test on OVCAR-4; 5.27 µM (inactive) in the test on SN12C; 41.4 µM (inactive) in the test on HT-29; 8.89 µM (inactive) in the test on SK-MEL-5; 5.82 µM (inactive) in the test on KM12. Further, the GI50 in the test with IGROV-1 was 2.6 µM (inactive); with SNB-78, 38.3 µM (inactive); in the test with RPMI-8226, 4.03 µM (inactive); in the test on MOLT-4 it was 2.23 µM (inactive); in the test on COLO 205, 33.5 µM (inactive); with SK-OV-3, 9.53 µM (inactive). The GI50 with NCI-H226 was 3.18 µM (inactive); with SF-295, 9.23 µM (inactive); in the test with HOP-62, 8.45 µM (inactive).
As to `CC(C)(C)c1ccc2c(c1)S(=O)(=O)Nc1cccc(c1)NS(=O)(=O)c1cc(C(C)(C)C)ccc1OCCOCCO2`, the GI50 in the test on UACC-62, in the test on OVCAR-4, in the test with SN12C, with HT-29, in the test with SK-MEL-5 and in the test on KM12 was > 100 µM (inactive) throughout. Besides, the GI50 is > 100 µM (inactive) in the test with IGROV-1; > 100 µM (inactive) in the test with SNB-78; 23.6 µM (inactive) in the test with RPMI-8226; > 100 µM (inactive) with MOLT-4; > 100 µM (inactive) in the test with COLO 205; > 100 µM (inactive) in the test with SK-OV-3. The GI50 in the test with NCI-H226, with SF-295 and in the test with HOP-62 was > 100 µM (inactive) each time.
`O=P1(O)c2ccccc2Nc2cc(C(F)(F)F)ccc21`: the GI50 in the test with UACC-62, in the test with OVCAR-4, in the test on SN12C, in the test on T47D, in the test on HT-29 and in the test with SK-MEL-5 was > 100 µM (inactive) each time. The GI50 in the test on KM12, with IGROV-1, with SNB-78, in the test with RPMI-8226, with NCI/ADR-RES and with MCF7 was > 100 µM (inactive) throughout. The GI50 with MDA-MB-435, with MOLT-4, with COLO 205, in the test with SK-OV-3, in the test with NCI-H226 and with SF-295 was > 100 µM (inactive) each time. Besides, the GI50 in the test on BT-549 and with HOP-62 was > 100 µM (inactive) each time.
Take `Ic1ncnc2c1ncn2C1CCCO1` (stereo not given): the GI50 in the test on UACC-62, with OVCAR-4, with SN12C, in the test with HT-29, with SK-MEL-5 and with KM12 was > 100 µM (inactive) in each case. Besides, the GI50 with IGROV-1, in the test with SNB-78, with RPMI-8226, in the test on MOLT-4, with COLO 205 and in the test with SK-OV-3 was > 100 µM (inactive) each time. The GI50 in the test with NCI-H226, with SF-295 and in the test with HOP-62 was > 100 µM (inactive) throughout.
Take `CCOc1ccccc1NC(=O)CCC(=O)NN`: the GI50 in the test on UACC-62, in the test on OVCAR-4, in the test with SN12C, in the test on HT-29, with SK-MEL-5 and in the test on KM12 was > 100 µM (inactive) in each case. For the same compound, the GI50 is > 100 µM (inactive) in the test on IGROV-1; > 100 µM (inactive) in the test with SNB-78; 65.6 µM (inactive) in the test with RPMI-8226; > 100 µM (inactive) with MOLT-4; > 100 µM (inactive) in the test on COLO 205; > 100 µM (inactive) in the test with SK-OV-3. Further, the GI50 in the test on NCI-H226, in the test with SF-295 and in the test on HOP-62 was > 100 µM (inactive) in each case.
With `O=C(/C=C/c1ccccc1O)C(c1ccccc1)c1ccccc1`, the GI50 in the test with UACC-62 is > 100 µM (inactive); with OVCAR-4 it was 48.5 µM (inactive); in the test with SN12C it was > 100 µM (inactive); in the test with HT-29, > 100 µM (inactive); with SK-MEL-5, > 100 µM (inactive); in the test on KM12, 98.9 µM (inactive). The GI50 with IGROV-1 is > 100 µM (inactive); in the test with SNB-78, > 100 µM (inactive); in the test on RPMI-8226 it was 72.6 µM (inactive); with MOLT-4 it was > 100 µM (inactive); in the test with COLO 205, 39.3 µM (inactive); in the test with SK-OV-3, > 100 µM (inactive). The GI50 in the test with NCI-H226, with SF-295 and with HOP-62 was > 100 µM (inactive) throughout.
As for `CC#CCC1CCC(OCC)=CC1=O` (stereo not given), the GI50 in the test with UACC-62, in the test on OVCAR-4, in the test with SN12C, with HT-29, with SK-MEL-5 and in the test with KM12 was > 100 µM (inactive) each time. Also, the GI50 in the test on IGROV-1, in the test with SNB-78, in the test on RPMI-8226, in the test with MOLT-4, in the test with COLO 205 and in the test with SK-OV-3 was > 100 µM (inactive) in each case. The GI50 in the test on NCI-H226 was 92.7 µM (inactive); with SF-295, > 100 µM (inactive); in the test with HOP-62, > 100 µM (inactive).
On to `COc1ccc(Br)c(C(=O)N2CCc3ccccc32)c1N`, for which the GI50 in the test with UACC-62 was 43.8 µM (inactive); in the test with OVCAR-4, 34.8 µM (inactive); in the test with SN12C it was 41.8 µM (inactive); in the test on HT-29, 52 µM (inactive); in the test on SK-MEL-5, 40.2 µM (inactive); in the test on KM12, 34.2 µM (inactive). The GI50 in the test on IGROV-1 is 70.5 µM (inactive); in the test on SNB-78, > 100 µM (inactive); in the test with RPMI-8226, 40.6 µM (inactive); in the test on MOLT-4 it was 31.3 µM (inactive); with COLO 205 it was 66.1 µM (inactive); in the test with SK-OV-3, 30.5 µM (inactive). The figures for the GI50 in the test on NCI-H226, in the test with SF-295 and with HOP-62 were 58.6 µM (inactive), 46.2 µM (inactive) and 42.3 µM (inactive), respectively.
For the compound `CC(=O)n1cc(CC(C)O)c(=O)[nH]c1=O` (stereo not given), the GI50 with UACC-62 is > 100 µM (inactive); in the test with OVCAR-4, > 100 µM (inactive); with SN12C it was 17.1 µM (inactive); with HT-29, > 100 µM (inactive); with SK-MEL-5 it was > 100 µM (inactive); in the test with KM12, > 100 µM (inactive). The GI50 with IGROV-1, in the test on SNB-78, with RPMI-8226, in the test on MOLT-4, in the test on COLO 205 and in the test with SK-OV-3 was > 100 µM (inactive) throughout. The GI50 in the test with NCI-H226, with SF-295 and in the test on HOP-62 was > 100 µM (inactive) each time.
Take `COc1cc(C2c3cc4c(cc3[C@@H](Nc3ccc(C#N)cc3)C3COC(=O)[C@H]23)OCO4)cc(OC)c1O` (stereo not given in full): the GI50 is 0.962 µM (active) with UACC-62; 3.43 µM (inactive) in the test on OVCAR-4; 1.05 µM (active) in the test with SN12C; 0.828 µM (active) in the test on T47D; 3.05 µM (inactive) in the test on HT-29; 0.661 µM (active) with SK-MEL-5. Besides, the GI50 in the test with KM12 was 5.33 µM (inactive); in the test on IGROV-1, 6.78 µM (inactive); with SNB-78 it was 3.03 µM (inactive); in the test on RPMI-8226, 0.155 µM (active); in the test with NCI/ADR-RES, 3.98 µM (inactive); in the test with MCF7, 0.881 µM (active). Also, the GI50 is 8.77 µM (inactive) in the test on MDA-MB-435; 0.274 µM (active) in the test on MOLT-4; 6.38 µM (inactive) with COLO 205; 1.63 µM (inactive) in the test on SK-OV-3; 0.665 µM (active) in the test on NCI-H226; 0.767 µM (active) with SF-295. Also, the GI50 in the test with BT-549 is 7.74 µM (inactive); in the test on HOP-62 it was 0.592 µM (active).
